The values that follow come from patent US20230270104A1, “USE OF ERYTHRITOL COMPOSITIONS AS MAMMAL-SAFE INSECTICIDES” (Drexel University, priority 2020, published 2023).

The test system of assay [1] is Drosophila melanogaster. The assay can be described thus: Erythritol concentration trials, fly longevity. The assay is classed as in vivo. Here is the method: Standard fly foods were prepared as previously described, and then were treated with 2M, 1M, 0.5M and 0.1M concentrations of erythritol, using 0.5M sucrose as control. 0 to 24 hour-old Drosophila were placed on these foods and mortality was recorded daily for 35 days as above. Analyses were conducted with SPSS software v. 20 (IBM corporation 2011). Fly longevity data were analyzed using survival analysis with right-hand censoring of subjects that lived to the end of the study or were lost for reasons other than death. Test were run for differences in survival distributions [Pr(flies alive) versus insect age] using the log-rank (Mantel-Cox) test to make all pairwise comparisons among treatments within each experiment.

In a further assay the test system is R. flavipes workers. The class given is in vivo, Reticulitermes flavipes. Here is the method:
Termites used in the survival and choice experiments were collected from three field colonies in Scotland Run Park (39.66° N, 75.05° W) in Clayton, N.J. between April and May 2019. After collection, colonies were maintained in plastic containers with soil and wood from the collection site as a substrate in laboratory conditions (20.8±0.9° C., 49±7% RH). Termites used in the consumption experiment were collected from a single field colony at Cobb's Creek Park (39.94° N, 75.24° W) in Philadelphia, Pa. during September of 2018. Workers were removed from the log and housed within 24 h of collection in 9 cm diameter petri dishes containing damp paper towel as a food source. Dishes were placed in an incubator at 26° C. (relative humidity varied between 40 and 60% across trials, but was consistent among all treatments within each trial). Each petri dish contained 10 workers. Termites used in all experiments measured 3-4 mm in length.
For the survival experiment, unbleached, brown paper towels (12 cm×24 cm, cat no. 01801, Kimberly-Clark Corporation, Neenah, Wis.), were completely submerged for 15 s in solution of distilled water, erythritol (100% purity, NOW foods, Bloomingdale, Ill.) of the below-specified concentrations, and 0.05% Brilliant Blue R-250 dye (cat. no 27816, Sigma-Aldrich, St. Louis, Mo.). The erythritol concentrations used were: 0 M (control), 0.25 M, 0.5 M, 0.75 M, 1.0 M, and 1.25 M. The treated paper towels were removed from solution and allowed to dry horizontally on racks before being cut into squares with an area of 144 cm^2. Papers were thereafter stored dry at room temperature in sealed containers.
Prior to the beginning of the experiment, termites were allowed to acclimate for 3 d to the petri dishes, in order to control for any death due to injury incurred during movement to the petri dishes; this was called the pretrial period. At the beginning of the pretrial period, termites used in the survival experiment were transferred from sections of natural nest kept in laboratory rearing boxes to 9 cm diameter plastic petri dishes lined with brown, unbleached paper towel (12 cm×24 cm) not treated with erythritol. The paper towel was rehydrated with 1 ml of distilled water. Each dish contained 10 workers. After the third (final) day of the pretrial period, dishes were checked for dead termites, assumed to be dead due to injury, and dead termites were replaced with live individuals from a petri dish of extra termites kept in similar conditions.
Following the pretrial period, the experiment was set up: pretrial paper towels were removed and replaced with treated paper towels of the correct erythritol treatment concentration; these were rehydrated with 750 μL of distilled water. Six treatment groups (0 M, 0.25 M, 0.5 M, 0.75 M, 1.0 M, 1.25 M erythritol) were used per colony (n=3 colonies), with three dishes per treatment, each containing 10 termite workers (n=30 workers/treatment/colony, n=540 total workers). Termite mortality was recorded every 24 h for 8 d.
Analyses were performed using SPSS v. 24 (IBM corp. 2016) and. Sigmaplot v.12.5 (Systat Software 2013) software. Differences in survival distributions across concentrations for all colonies, within the colonies, and across colonies were tested using pairwise log-rank Mantel Cox tests in SPSS, with subjects living to the end of the trial or lost to reasons other than death (e.g., escaped or injured) included in the analysis as right-censored values. Mean percent mortality was calculated for each concentration across colonies at 72 and 96 h and a three parameter, best-fit sigmoid curve was fitted to the data in Sigmaplot to assess LC at these time points.

Assay [2] deals with Drosophila melanogaster. The assay is described as follows: Longevity of adult flies raised on food containing sweeteners. The assay is classed as in vivo. Conditions: repeat study, blue-dyed food with 0.0238 g/ml sweetener, FIG. 3. Here is the method: All animals were cultured at 25° C., kept at 50-60% humidity, and were raised under a standard 12:12 light dark cycle. For each experimental treatment, n=30 flies were tested in groups of 10 per tube, and three tubes per treatment. Tubes were kept on their side to minimize subject becoming mired in the food. Foods were replaced twice a week. The total number of fruit flies used for these experiments was 780, with 300 used for two initial trials testing mortality among store-brand sweeteners, 210 used for repeating this with blue dye and pure erythritol, 120 for choice trials and 150 for concentration trials.
Standard Drosophila food for larval culturing consisted of water, cornmeal, yeast, molasses, and agar, as previously described (Chakraborty, et al., 2011, PLoS ONE 6: e20799). […] The addition of cornmeal and yeast assured the flies still received sufficient carbohydrates and protein in addition to any effects of the treatment additives.
Drosophila food was combined with an equal weight/volume (0.0238 g/ml) of one non-nutritive sweetener (TRUVIA, EQUAL, SPLENDA, SWEET'NLOW, or PUREVIA) or a control nutritive sweetener (controls: sucrose or corn syrup). Wild type (Canton S) larvae were initially raised on the standard food, and 0-12 hour old adult flies were transferred to foods containing one non-nutritive sweetener or a control treatment. […] The number of dead flies were scored daily.

The test system of assay [3] is Drosophila melanogaster. The assay can be described thus: Two-way food choice experiments, fly longevity. The class given is in vivo. As to conditions: FIG. 5. Here is the method: Foods containing 2 M erythritol, 1M erythritol and 1M sucrose were prepared for paired presentations in open choice tests. In each treatment one food type contained 0.05% brilliant blue FCF (Fisher 50-727-25). The blue dye allowed visual confirmation of feeding on the dyed food in the pair. The flies were presented with access to two food choices by using a modified cotton stopper with approximately a 1.5 cm diameter hole to connect each pair of food tubes.
The final choice treatment was between blue 2M erythritol food and non-blue 1M sucrose food (this treatment provides a comparison with the 1M erythritol/1M erythritol treatment as a test of dilution of toxicity by alternative food sources; blue guts would confirm erythritol was being consumed in the presence of sucrose). The number of flies with visible blue gut contents and mortality daily were recorded for 30 days.
Analyses were conducted with SPSS software v. 20 (IBM corporation 2011). Fly longevity data were analyzed using survival analysis with right-hand censoring of subjects that lived to the end of the study or were lost for reasons other than death. Test were run for differences in survival distributions [Pr(flies alive) versus insect age] using the log-rank (Mantel-Cox) test to make all pairwise comparisons among treatments within each experiment.

Assay [4] concerns fruit flies. The assay is described as follows: Comparison of erythritol with other human-safe sweet alcohols, fly longevity. The assay is classed as in vivo, Drosophila melanogaster. Conditions: 17 days; for longevity, erythritol treatment versus the other treatments: FIG. 6. Here is the method:
An experiment was conducted to compare the effectiveness of erythritol with other human-safe sweet alcohols: D-mannitol, maltitol, sucrose, and xylitol. The concentration of all sweet alcohols were 1M.
Flies were raised for 17 days on standard fly food that contained 1 M concentrations of each sweetener treatment. Death of flies was recorded daily as before; each treatment was replicated on three vials of 10 flies each for 30 subjects/treatment. Differences in longevity were analyzed using the Kaplan-Meier survival analysis log rank test, making all pairwise comparisons among treatments.

Assay [5] relates to fruit flies. Conditions: 0.5 M erythritol food, previous work; cited from earlier work.
Where [6] appears, read: 1 M sweetener in standard fly food.

Entries after “also recorded” stand apart in the source; their conditions may differ. Read-outs that look alike come from different tables or passages of the source.

Regarding `OC[C@@H](O)[C@@H](O)CO` [erythritol, (2R,3S)-butane-1,2,3,4-tetraol], the “longevity compared to control food” value in the assay on Drosophila melanogaster [1] (0.1M erythritol in food, observations terminated at 35 days) was “no significant difference in longevity”. Besides, the “longevity with increasing erythritol concentration” value with Drosophila melanogaster [1] (0.1M, 0.5M, 1.0M and 2.0M in food, 35 days, FIG. 4) is on record as “significant decrease in longevity; also recorded: dose-dependent reduction in longevity”. For the same compound, the “longevity compared to control food containing 0.5M sucrose” value in the assay on Drosophila melanogaster [1] (0.5M erythritol in food) and in the assay with Drosophila melanogaster [1] (1M erythritol in food) was “significant reductions in longevity” each time. In addition, in the assay with Drosophila melanogaster [1] (2M erythritol in food), the “longevity compared to all other treatments” value is “significant and severe effect on longevity”. Besides, the “reduction in mean longevity” value came out at 1.74 days in the assay with R. flavipes workers (0.25 M to 0.5 M); 0.23 days with R. flavipes workers (0.5-0.75 M); 0.26 days with R. flavipes workers (0.75-1.0 M); 0.14 days in the assay with R. flavipes workers (1.0-1.25 M); 3.77 days with R. flavipes workers (concentration increased from 0 M to 0.25 M, FIG. 10). Moreover, the “concentration at which significant effects on longevity start” value in the assay with R. flavipes workers (R. flavipes workers, 8 d) worked out at 0.25 M. Besides, the “time of exposure to reach 50% mortality” value in the assay on R. flavipes workers (termites, 0.5 M erythritol filter papers) is no more than 2 days; with fruit flies [5], 20 days. Besides, in the assay on Drosophila melanogaster [2], the “longevity compared to PUREVIA, EQUAL, sucrose and corn syrup” value is “significant decrease in longevity”. For the same compound, the “longevity relative to sucrose:sucrose choice” value with Drosophila melanogaster [3] (choice between 1M sucrose and 1M erythritol) was “significant decrease in longevity; also recorded: significantly decreased longevity”; in the assay on Drosophila melanogaster [3] (choice between 1M sucrose and 2M erythritol) it was “significant decrease in longevity; also recorded: significantly reduced”. In addition, the “toxicity to fruit flies upon ingestion” value with fruit flies [4] (1 M in standard fly food) is on record as “toxic to fruit flies upon ingestion”. This compound also returned a mean longevity in the assay with fruit flies [4] (setting [6]) of 4.7 ± 0.15 days. In addition, the “longevity, erythritol treatment versus the other treatments” value with fruit flies [4] (setting [6]) was “significantly lower; also recorded: significantly shorter longevity”.
In the case of `OC[C@@H](O)[C@@H](O[C@H]1O[C@H](CO)[C@@H](O)[C@H](O)[C@H]1O)[C@H](O)[C@@H](O)CO` [maltitol], in the assay with fruit flies [4] (setting [6]), the “longevity compared to sucrose (sugar) control” value (shortened to “longevity compared to sucrose”) is “did not differ from sugar control; also recorded: did not differ from the control; also recorded: not effective at reducing fly longevity” and the “longevity, erythritol treatment versus the other treatments” value is “significantly greater longevity than erythritol-fed flies”.
As to `OC[C@@H](O)[C@H](O)[C@@H](O)CO` [xylitol], in the assay on fruit flies [4] (setting [6]), the “longevity compared to sucrose” value is “did not differ from sugar control; also recorded: did not differ from the control; also recorded: not effective at reducing fly longevity” and the “longevity, erythritol treatment versus the other treatments” value is given as “significantly greater longevity than erythritol-fed flies”.
Consider `OC[C@@H](O)[C@@H](O)[C@H](O)[C@H](O)CO` [D-mannitol], for which, in the assay on fruit flies [4] (setting [6]), the “longevity compared to sucrose” value is given as “did not differ from sugar control; also recorded: slightly but significantly reduced longevity; also recorded: almost insignificant insecticidal effect” and the “longevity, erythritol treatment versus the other treatments” value was “significantly greater longevity than erythritol-fed flies”.
For `OC[C@H]1O[C@@](CO)(O[C@H]2O[C@H](CO)[C@@H](O)[C@H](O)[C@H]2O)[C@@H](O)[C@@H]1O` [sucrose], the “longevity, erythritol treatment versus the other treatments” value in the assay on fruit flies [4] (setting [6]) is given as “significantly greater longevity than erythritol-fed flies”.
